Experiments:
Type in all cases: cell-based
A2780 [1] = assay: SRB assay, IMT combined with inhibitor; conditions: A2780 (ovary); concentration series of the labelled inhibitor + fixed concentration of IMT (3S)-1-[(2R)-2-[4-(2-chloro-4-fluoro-phenyl)-2-oxo-chromen-7-yl]oxypropanoyl]piperidine-3-carboxylic acid (Table 3: 40 nM, 120 h); negative=synergistic, positive=antagonistic
Method: In two studies, the ovarian cell line A2780 was tested for 72 hours with the IMT N,N-dimethyl-2-[4-(o-tolyl)-2-oxo-chromen-7-yl]oxy-propanamide (30 μM-15 nM) and the MEK inhibitor Selumetinib (30 μM-10 nM), or with the IMT 1-[2-[4-(2-chlorophenyl)-2-oxo-chromen-7-yl]oxypropanoyl]piperidine-3-sulfonamide (30 μM-15 nM) and the MEK inhibitor PD318088 (30 μM-10 nM).
(§1) Solforhodamine B assay is carried out as described in Voigt W. (2005) Sulforhodamine B Assay and Chemosensitivity. (Methods in Molecular Medicine™, vol 110. Humana Press. https://doi.org/10.1385/1-59259-869-2:039).
(§2) The determination of changes in cellular biomass was based on the Solforhodamine B assay format, carried out as described in Voigt W. (2005) Sulforhodamine B Assay and Chemosensitivity. (Methods in Molecular Medicine™, vol 110. Humana Press. https://doi.org/10.1385/1-59259-869-2:039).
(§3) All in vitro cell culture experiments were carried out under near physiological glucose concentrations (5 mM) in at least two independent replicates.
First, 30 different cell lines from 14 different tissue types were tested in the SRB assay format. The cells were examined individually for changes in growth over a period of 120 hours with dilution series of both inhibitors. Untreated cells were used as a negative control group. Subsequently, a dilution series of the respective MAPK signalling pathway SOCs was treated in combination with a fixed concentration of 40 nM (3S)-1-[(2R)-2-[4-(2-chloro-4-fluoro-phenyl)-2-oxo-chromen-7-yl]oxypropanoyl]piperidine-3-carboxylic acid.

[2] = system: 33 tumour cell lines from different tissues; assay: SRB assay, panel of tumour cell lines; conditions: fixed concentration of IMT (3S)-1-[(2R)-2-[4-(2-chloro-4-fluoro-phenyl)-2-oxo-chromen-7-yl]oxypropanoyl]piperidine-3-carboxylic acid against concentration series of the labelled inhibitor
Method: as §1, §2, §3
To establish the method described, combinations of (3S)-1-[(2R)-2-[4-(2-chloro-4-fluoro-phenyl)-2-oxo-chromen-7-yl]oxypropanoyl]piperidine-3-carboxylic acid and various PARPi were tested with regard to their effect on the cell growth of 33 tumour cell lines from different tissues, in the SRB and CTG assay format. The assay methods and protocols in cell culture and measurement followed the procedure as described in Example 1). […] This initial study was followed by validation experiments in a matrix format and in the CTG assay, as described for Example 1) (Table 6.) […]

A204 = assay: SRB assay, IMT combined with inhibitor; conditions: A204 (muscle); concentration series of the labelled inhibitor + fixed concentration of IMT (3S)-1-[(2R)-2-[4-(2-chloro-4-fluoro-phenyl)-2-oxo-chromen-7-yl]oxypropanoyl]piperidine-3-carboxylic acid; negative=synergistic, positive=antagonistic
Method: as §1, §2, §3
(§4) To establish the method described, combinations of (3S)-1-[(2R)-2-[4-(2-chloro-4-fluoro-phenyl)-2-oxo-chromen-7-yl]oxypropanoyl]piperidine-3-carboxylic acid and various PARPi were tested with regard to their effect on the cell growth of 33 tumour cell lines from different tissues, in the SRB and CTG assay format. The assay methods and protocols in cell culture and measurement followed the procedure as described in Example 1). […] This initial study was followed by validation experiments in a matrix format and in the CTG assay, as described for Example 1) (Table 6.)

ASPC1 = assay: SRB assay, IMT combined with inhibitor; conditions: ASPC1 (pancreas); concentration series of the labelled inhibitor + fixed concentration of IMT (3S)-1-[(2R)-2-[4-(2-chloro-4-fluoro-phenyl)-2-oxo-chromen-7-yl]oxypropanoyl]piperidine-3-carboxylic acid; negative=synergistic, positive=antagonistic
Method: as §1, §2, §3, §4

MCF7 = assay: SRB assay, IMT combined with inhibitor; conditions: MCF7 (breast); concentration series of the labelled inhibitor + fixed concentration of IMT (3S)-1-[(2R)-2-[4-(2-chloro-4-fluoro-phenyl)-2-oxo-chromen-7-yl]oxypropanoyl]piperidine-3-carboxylic acid; negative=synergistic, positive=antagonistic
Method: as §1, §2, §3, §4

MDAMB468 = assay: SRB assay, IMT combined with inhibitor; conditions: MDAMB468 (breast); concentration series of the labelled inhibitor + fixed concentration of IMT (3S)-1-[(2R)-2-[4-(2-chloro-4-fluoro-phenyl)-2-oxo-chromen-7-yl]oxypropanoyl]piperidine-3-carboxylic acid; negative=synergistic, positive=antagonistic
Method: as §1, §2, §3, §4

A2780 [3] = assay: CellTiter-GLO (CTG) assay, combinatorial matrix

SMILES	difference between the calculated combinatorial index (BLISS) and the observed combinatorial effect (A2780 [1])	difference between the calculated combinatorial index (BLISS) and the observed combinatorial effect (A204)	difference between the calculated combinatorial index (BLISS) and the observed combinatorial effect (ASPC1)	difference between the calculated combinatorial index (BLISS) and the observed combinatorial effect (MCF7)	difference between the calculated combinatorial index (BLISS) and the observed combinatorial effect (MDAMB468)	further results
Cc1cc(C(=O)NOCCO)c(Nc2ccc(I)cc2F)n(C)c1=O [AZD8330, 2-((2-Fluoro-4-iodophenyl)amino)-N-(2-hydroxyethoxy)-1,5-dimethyl-6-oxo-1,6-dihydropyridine-3-carboxamide]	0.0118					
COc1c(OCCCN2CCOCC2)ccc2c1N=C(NC(=O)c1cnc(N)nc1)N1CCN=C21 [BAY 80-6946, 2-Amino-N-{7-methoxy-8-[3-(4-morpholinyl)propoxy]-2,3-dihydroimidazo[1,2-c]quinazolin-5-yl}-5-pyrimidinecarboxamide]	0.0466	−0.0098	0.0488	0.0155	0.0183	combinatorial effect in the majority of the cell lines and tissue types examined [2]: clear synergistic effect
O=C(c1ccc(F)c(F)c1Nc1ccc(I)cc1F)N1CC(O)([C@@H]2CCCCN2)C1 [Cobimetinib]	−0.0105					
CC(C)(C)c1nc(-c2cccc(NS(=O)(=O)c3c(F)cccc3F)c2F)c(-c2ccnc(N)n2)s1 [Dabrafenib]	0.0281					
C[C@H](Nc1ncnc2nc[nH]c12)c1cc2cccc(Cl)c2c(=O)n1-c1ccccc1 [Duvelisib]	0.0081	−0.0217	0.0753	0.0256	−0.0285	
CS(=O)(=O)N1CCN(Cc2cc3nc(-c4cccc5[nH]ncc45)nc(N4CCOCC4)c3s2)CC1 [GDC-0941, 2-(1H-Indazol-4-yl)-6-[[4-(methylsulfonyl)-1-piperazinyl]methyl]-4-(4-morpholinyl)thieno[3,2-d]pyrimidine]	0.0077	0.3066	0.1003	0.0454	−0.0509	
O=C(c1cc(Cc2n[nH]c(=O)c3ccccc23)ccc1F)N1CCN(C(=O)C2CC2)CC1 [Olaparib]	−0.0656	−0.0329	−0.0583	0.0602	−0.0262	combination of IMT and PARPi compared to treatment with just the PARPi alone (A2780 [3]; A2780, CTG matrix, 30 μM to 10 nM IMT (3S)-1-[(2R)-2-[4-(2-chloro-4-fluoro-phenyl)-2-oxo-chromen-7-yl]oxypropanoyl]piperidine-3-carboxylic acid + 30 μM to 40 nM of the labelled PARPi): advantage of the combination; activity at 0.04 µM (A2780 [3]; Homo sapiens, A2780, 72 hours, Olaparib 0.04 μM, IMT (3S)-1-[(2R)-2-[4-(2-chloro-4-fluoro-phenyl)-2-oxo-chromen-7-yl]oxypropanoyl]piperidine-3-carboxylic acid at the μM of c0, untreated control =100%, read-out: Measured residual activity (cellular ATP content)): 99%; activity at 0.1 µM (A2780 [3]; Homo sapiens, A2780, 72 hours, Olaparib 0.1 μM, IMT (3S)-1-[(2R)-2-[4-(2-chloro-4-fluoro-phenyl)-2-oxo-chromen-7-yl]oxypropanoyl]piperidine-3-carboxylic acid at the μM of c0, untreated control =100%, read-out: Measured residual activity (cellular ATP content)): 85%; activity at 0.4 µM (A2780 [3]; Homo sapiens, A2780, 72 hours, Olaparib 0.4 μM, IMT (3S)-1-[(2R)-2-[4-(2-chloro-4-fluoro-phenyl)-2-oxo-chromen-7-yl]oxypropanoyl]piperidine-3-carboxylic acid at the μM of c0, untreated control =100%, read-out: Measured residual activity (cellular ATP content)): 46%; activity at 1.1 µM (A2780 [3]; Homo sapiens, A2780, 72 hours, Olaparib 1.1 μM, IMT (3S)-1-[(2R)-2-[4-(2-chloro-4-fluoro-phenyl)-2-oxo-chromen-7-yl]oxypropanoyl]piperidine-3-carboxylic acid at the μM of c0, untreated control =100%, read-out: Measured residual activity (cellular ATP content)): 27%; activity at […] (A2780 [3]; Homo sapiens, A2780, 72 hours, Olaparib 3.3 μM, IMT (3S)-1-[(2R)-2-[4-(2-chloro-4-fluoro-phenyl)-2-oxo-chromen-7-yl]oxypropanoyl]piperidine-3-carboxylic acid at the μM of c0, untreated control =100%, read-out: Measured residual activity (cellular ATP content)): 14%; activity at 10 µM (A2780 [3]; Homo sapiens, A2780, 72 hours, Olaparib 10 μM, IMT (3S)-1-[(2R)-2-[4-(2-chloro-4-fluoro-phenyl)-2-oxo-chromen-7-yl]oxypropanoyl]piperidine-3-carboxylic acid at the μM of c0, untreated control =100%, read-out: Measured residual activity (cellular ATP content)): 1%; activity at 30 µM (A2780 [3]; Homo sapiens, A2780, 72 hours, Olaparib 30 μM, IMT (3S)-1-[(2R)-2-[4-(2-chloro-4-fluoro-phenyl)-2-oxo-chromen-7-yl]oxypropanoyl]piperidine-3-carboxylic acid at the μM of c0, untreated control =100%, read-out: Measured residual activity (cellular ATP content)): 0%; combinatorial effect in the majority of the cell lines and tissue types examined [2]: clear synergistic effect
O=C(NOC[C@H](O)CO)c1ccc(F)c(F)c1Nc1ccc(I)cc1F [PD 0325901, (R)—N-(2,3-dihydroxypropoxy)-3,4-difluoro-2-((2-fluoro-4-iodophenyl)amino)benzamide]	−0.0318					
Cn1cnc2c(F)c(Nc3ccc(Br)cc3Cl)c(C(=O)NOCCO)cc21 [Selumetinib]	−0.0046					
CC(=O)Nc1cccc(-n2c(=O)n(C3CC3)c(=O)c3c(Nc4ccc(I)cc4F)n(C)c(=O)c(C)c32)c1 [Trametinib]	0.0305					
CC(C)Nc1cc(-c2c[nH]c(C(=O)N[C@H](CO)c3cccc(Cl)c3)c2)c(Cl)cn1 [Ulixertinib]	−0.0025					
